Measured values reported in patent US20240335442A1 (Eurofarma Laboratórios S.A., priority 2021, published 2024).

Experiments:
[1] = target: human sodium channel Nav 1.8 (Homo sapiens (Human), UniProt Q9Y5Y9); experiment: Automated whole-cell voltage-clamp (ScreenPatch 384P), Nav 1.8 sodium current, Protocol 2; type: cell-based; conditions: read-out: Nav1.8 IC50
Procedure: (§1) Biological assays were performed on Chinese hamster ovary (CHO) cells expressing the human sodium channels Nav 1.8 and Nav 1.7 stably.
(§2) The experimental voltage-clamp protocol using the whole cell configuration was established on the automated ScreenPatch® 384P platform (SP384PE, Nanion Technologies, Livingston, NJ) and recording of the results was performed with a Nanion 384-well Patch Clamp chip (NPC) (Nanion Technologies, Livingston, NJ).
(§3) Compounds of Formula (I), were diluted in eight concentrations in the extracellular solution composed of physiological saline, buffered with HEPES (mM): NaCl, 137; KCl, 4; CaCl2, 3.8; MgCl2, 1; HEPES, 10; Glucose, 10; pH 7.4. The […], 50; CsF, 90; MgCl2, 5; EGTA, 5; HEPES, 10; pH 7.2. The duration of exposure of each compound with the cells expressing Nav 1.7 or Nav 1.8 was at least five minutes and the assays were performed at room temperature.
(§4) The measurements of the sodium currents of Nav 1.8 and Nav 1.7 were obtained using the voltage protocols described below: • Protocol 1: A holding voltage of-90 mV was established followed by a voltage phase of 200 ms to-120 mV, followed by a voltage step of 10 mV for 1 second for Nav 1.8 or 0 mV for Nav 1.7, followed by a step of-100 mV for 20 ms, followed by a step of 20 ms for 10 mV for Nav 1.8 or 0 mV for Nav 1.7 (TP1A) before returning to the holding voltage of-90 mV. • Protocol 2: A holding voltage of-100 mV was established followed by an inactivation voltage step at −40 mV for 8 seconds, followed by a −100 mV step for 20 ms, followed by a 20 ms step for 10 mV for Nav 1.8 or 0 mV for Nav 1.7 (TP1A) before returning to the holding voltage of-100 mV.
(§5) Protocols were repeated at a frequency of 0.1 Hz (Protocol 1) or 0.05 Hz (Protocol 2) and current amplitude was quantified over the TP1A phase log. The variation in the peak amplitude of the current was evaluated according to the Formula described below, after exposure of the cells expressing the channels, at each concentration of the different compounds:
(§6) where ITP1A,basal, and ITP1A,molecule represent the entry peaks of sodium currents into TP1A prior to exposure to the compound and in the presence of the compound, respectively.
(§7) The decrease in peak current amplitude, after exposure of the cells to the compounds, was used to calculate the percent relative blocking of the channels relative to the positive control according to the Formula below: […]
(§8) where % V and % CP represent the averages of the values of current inhibition with a vehicle (DMSO) and positive controls, respectively. The sodium currents of the positive control were considered as 100%.
(§9) where [Test] represents the concentration of the evaluated molecule, IC50 is the concentration of the compound that generates half of the maximum inhibition, N is the Hill's coefficient and % Block′ is the percentage of the sodium channel current (Nav 1.8 and Nav 1.7) inhibited at each concentration of the evaluated molecule. Data were obtained by non linear least squares regression with XL fit for Excel (Microsoft, Redmond, WA).
(§10) Compounds were tested in at least one assay to obtain the IC50 value.

[2] = target: human sodium channel Nav 1.7 (Homo sapiens (Human), UniProt Q15858); experiment: Automated whole-cell voltage-clamp (ScreenPatch 384P), Nav 1.7 sodium current, Protocol 2; type: cell-based; conditions: read-out: Nav1.7 IC50
Sequence of human sodium channel Nav 1.7 (Q15858 whole entry): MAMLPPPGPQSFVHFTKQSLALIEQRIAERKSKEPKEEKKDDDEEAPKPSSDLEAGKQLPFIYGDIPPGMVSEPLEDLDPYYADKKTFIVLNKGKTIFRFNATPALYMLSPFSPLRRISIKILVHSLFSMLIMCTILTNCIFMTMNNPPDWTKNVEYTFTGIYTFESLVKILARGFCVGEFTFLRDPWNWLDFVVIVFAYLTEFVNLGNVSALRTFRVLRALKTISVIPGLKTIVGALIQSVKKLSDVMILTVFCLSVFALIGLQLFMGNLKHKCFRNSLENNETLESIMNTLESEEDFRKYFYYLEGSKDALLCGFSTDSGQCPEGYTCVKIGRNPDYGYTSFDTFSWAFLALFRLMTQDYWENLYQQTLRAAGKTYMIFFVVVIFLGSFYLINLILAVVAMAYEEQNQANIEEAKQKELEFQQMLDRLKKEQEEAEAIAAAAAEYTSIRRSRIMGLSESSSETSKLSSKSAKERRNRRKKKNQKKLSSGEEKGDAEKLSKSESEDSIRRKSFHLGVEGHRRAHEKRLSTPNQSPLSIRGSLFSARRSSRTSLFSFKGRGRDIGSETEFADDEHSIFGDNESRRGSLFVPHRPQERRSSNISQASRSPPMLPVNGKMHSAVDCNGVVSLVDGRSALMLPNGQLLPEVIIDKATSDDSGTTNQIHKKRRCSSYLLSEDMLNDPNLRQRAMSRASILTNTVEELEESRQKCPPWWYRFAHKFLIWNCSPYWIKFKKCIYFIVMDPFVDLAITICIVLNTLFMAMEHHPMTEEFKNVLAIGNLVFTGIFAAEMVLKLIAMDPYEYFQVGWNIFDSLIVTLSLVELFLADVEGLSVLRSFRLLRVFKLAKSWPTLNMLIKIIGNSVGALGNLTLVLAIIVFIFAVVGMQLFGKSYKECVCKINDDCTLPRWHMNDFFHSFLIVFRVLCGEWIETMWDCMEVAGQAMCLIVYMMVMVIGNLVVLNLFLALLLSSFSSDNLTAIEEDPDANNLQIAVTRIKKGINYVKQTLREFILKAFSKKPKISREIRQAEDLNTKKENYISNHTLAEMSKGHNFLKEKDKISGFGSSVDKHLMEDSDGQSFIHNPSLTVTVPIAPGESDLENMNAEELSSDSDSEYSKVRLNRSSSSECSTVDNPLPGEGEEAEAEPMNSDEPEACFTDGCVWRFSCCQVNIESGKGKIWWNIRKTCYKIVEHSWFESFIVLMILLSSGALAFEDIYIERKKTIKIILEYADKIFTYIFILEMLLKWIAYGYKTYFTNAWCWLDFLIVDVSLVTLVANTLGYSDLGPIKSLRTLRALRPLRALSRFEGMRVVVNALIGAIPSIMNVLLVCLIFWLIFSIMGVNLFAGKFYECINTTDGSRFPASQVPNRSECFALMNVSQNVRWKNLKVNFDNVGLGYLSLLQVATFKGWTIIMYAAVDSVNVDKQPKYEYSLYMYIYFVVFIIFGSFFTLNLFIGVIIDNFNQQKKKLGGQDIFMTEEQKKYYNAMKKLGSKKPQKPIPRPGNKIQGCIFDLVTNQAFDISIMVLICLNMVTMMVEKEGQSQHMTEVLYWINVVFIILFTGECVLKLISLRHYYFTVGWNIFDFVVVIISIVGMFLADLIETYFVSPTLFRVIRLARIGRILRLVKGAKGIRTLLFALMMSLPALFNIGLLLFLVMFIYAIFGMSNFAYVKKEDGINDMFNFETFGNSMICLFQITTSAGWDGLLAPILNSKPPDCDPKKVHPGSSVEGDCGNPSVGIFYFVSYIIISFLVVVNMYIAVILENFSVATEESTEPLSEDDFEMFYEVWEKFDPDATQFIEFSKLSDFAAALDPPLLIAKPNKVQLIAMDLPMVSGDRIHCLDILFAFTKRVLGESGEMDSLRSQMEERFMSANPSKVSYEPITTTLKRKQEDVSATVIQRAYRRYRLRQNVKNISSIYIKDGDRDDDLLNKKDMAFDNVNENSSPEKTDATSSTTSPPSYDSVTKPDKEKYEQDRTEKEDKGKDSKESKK
Procedure: as §1, §2, §3, §4, §5, §6, §7, §8, §9, §10

Sequence of human sodium channel Nav 1.8 (Q9Y5Y9 whole entry): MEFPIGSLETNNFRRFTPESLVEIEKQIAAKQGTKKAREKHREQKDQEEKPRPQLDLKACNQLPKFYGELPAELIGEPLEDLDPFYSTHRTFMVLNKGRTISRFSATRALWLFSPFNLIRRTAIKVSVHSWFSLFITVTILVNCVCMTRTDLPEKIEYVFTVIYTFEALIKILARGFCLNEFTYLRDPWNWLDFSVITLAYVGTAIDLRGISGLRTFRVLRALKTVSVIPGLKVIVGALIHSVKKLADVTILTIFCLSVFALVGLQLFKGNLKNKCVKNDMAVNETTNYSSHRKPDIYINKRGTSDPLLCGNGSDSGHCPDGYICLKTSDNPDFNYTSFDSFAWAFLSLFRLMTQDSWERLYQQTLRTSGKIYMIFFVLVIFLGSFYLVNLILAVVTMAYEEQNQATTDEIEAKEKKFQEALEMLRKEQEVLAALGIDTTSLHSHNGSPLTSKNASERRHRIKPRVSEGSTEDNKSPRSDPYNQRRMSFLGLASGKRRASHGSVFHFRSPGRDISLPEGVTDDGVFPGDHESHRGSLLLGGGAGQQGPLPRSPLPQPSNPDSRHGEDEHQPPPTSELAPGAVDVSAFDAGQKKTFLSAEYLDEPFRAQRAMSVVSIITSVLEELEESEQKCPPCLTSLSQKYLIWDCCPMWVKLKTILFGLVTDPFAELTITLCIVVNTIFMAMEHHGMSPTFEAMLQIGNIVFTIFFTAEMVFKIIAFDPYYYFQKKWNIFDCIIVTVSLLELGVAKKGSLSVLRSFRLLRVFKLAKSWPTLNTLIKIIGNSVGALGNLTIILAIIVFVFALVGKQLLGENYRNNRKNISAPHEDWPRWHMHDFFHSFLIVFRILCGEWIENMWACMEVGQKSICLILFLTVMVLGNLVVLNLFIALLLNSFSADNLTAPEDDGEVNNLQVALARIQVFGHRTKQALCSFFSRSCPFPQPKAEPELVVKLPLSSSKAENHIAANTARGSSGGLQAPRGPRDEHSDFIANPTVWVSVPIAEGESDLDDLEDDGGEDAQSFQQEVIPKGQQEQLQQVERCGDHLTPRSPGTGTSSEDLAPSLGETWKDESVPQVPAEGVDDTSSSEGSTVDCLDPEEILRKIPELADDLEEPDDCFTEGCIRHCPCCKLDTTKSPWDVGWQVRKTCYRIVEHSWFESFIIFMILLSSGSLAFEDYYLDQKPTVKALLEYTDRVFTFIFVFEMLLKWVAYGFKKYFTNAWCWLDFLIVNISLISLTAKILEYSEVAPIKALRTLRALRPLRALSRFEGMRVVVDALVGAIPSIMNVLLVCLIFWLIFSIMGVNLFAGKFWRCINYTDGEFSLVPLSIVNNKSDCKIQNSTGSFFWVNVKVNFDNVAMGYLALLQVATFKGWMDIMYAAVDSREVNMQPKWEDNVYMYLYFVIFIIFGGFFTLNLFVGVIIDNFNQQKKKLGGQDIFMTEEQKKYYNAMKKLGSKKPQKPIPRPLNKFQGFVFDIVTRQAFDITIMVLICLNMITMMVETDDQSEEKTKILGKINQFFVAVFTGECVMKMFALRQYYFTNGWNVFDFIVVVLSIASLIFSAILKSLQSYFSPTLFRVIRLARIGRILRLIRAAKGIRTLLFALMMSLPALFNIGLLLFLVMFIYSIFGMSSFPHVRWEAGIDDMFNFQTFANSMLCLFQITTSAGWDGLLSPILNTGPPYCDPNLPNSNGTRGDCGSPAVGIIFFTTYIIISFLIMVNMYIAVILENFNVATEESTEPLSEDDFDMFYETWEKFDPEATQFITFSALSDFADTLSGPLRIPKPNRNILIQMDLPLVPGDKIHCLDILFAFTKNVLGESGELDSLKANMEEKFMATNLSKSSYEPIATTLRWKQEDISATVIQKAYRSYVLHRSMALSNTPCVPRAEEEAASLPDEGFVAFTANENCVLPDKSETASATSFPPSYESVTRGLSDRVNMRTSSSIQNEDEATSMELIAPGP

Structure (SMILES)	IC50 [1]	IC50 [2]
COc1cc(/C=N/NC(=O)c2cncc(-c3ccc(Cl)cc3)n2)cc(OC)c1 [Compound 1, 6-(4-chlorophenyl)-N′-[(E)-(3,5-dimethoxyphenyl)methylidene]pyrazine-2-carbohydrazide]	> 1000 nM	> 1000 nM
CCOc1ccc(-c2cncc(C(=O)N/N=C/c3cc(OC)cc(OC)c3)n2)cc1 [Compound 2, (E)-N′-(3,5-dimethoxybenzylidene)-6-(4-ethoxyphenyl)pyrazine-2-carbohydrazide]	32.5 nM	239 nM
CCOc1ccc(-c2cncc(C(=O)N/N=C/c3cc(OC)ccc3OC)n2)cc1 [Compound 3, (E)-N′-(2,5-dimethoxybenzylidene)-6-(4-ethoxyphenyl)pyrazine-2-carbohydrazide]	152 nM	855 nM
CCOc1ccc(-c2cncc(C(=O)N/N=C/c3cc(OC)cc4ocnc34)n2)cc1 [Compound 6, (E)-6-(4-ethoxyphenyl)-N′-((6-methoxybenzo[d]oxazol-4-yl)methylene)pyrazine-2-carbohydrazide]	> 300 nM	> 300 nM
CCOc1ccc(-c2cncc(C(=O)N/N=C/c3ccnc(OC)c3)n2)cc1 [Compound 10, (E)-6-(4-ethoxyphenyl)-N′-((2-methoxypyridin-4-yl)methylene)pyrazine-2-carbohydrazide]	> 300 nM	> 300 nM
CCOc1ccc(-c2cncc(C(=O)N/N=C/c3cc(OC)cc(OC)c3OC)n2)cc1 [Compound 13, (E)-6-(4-ethoxyphenyl)-N′-(2,3,5-trimethoxybenzylidene)pyrazine-2-carbohydrazide]	73 nM	189 nM
CCOc1ccc(-c2cncc(C(=O)N/N=C/c3cc(OC)cc(OC)c3OCC)n2)cc1 [Compound 14, (E)-N′-(2-ethoxy-3,5-dimethoxybenzylidene)-6-(4-ethoxyphenyl)pyrazine-2-carbohydrazide]	156 nM	308 nM
CCOc1ccc(-c2cncc(C(=O)N/N=C/c3cc(F)cc(OC)c3)n2)cc1 [Compound 15, (E)-6-(4-ethoxyphenyl)-N′-(3-fluoro-5-methoxybenzylidene)pyrazine-2-carbohydrazide]	25.2 nM	243 nM
CCCOc1cc(/C=N/NC(=O)c2cncc(-c3ccc(OCC)cc3)n2)cc(OC)c1 [Compound 16, (E)-6-(4-ethoxyphenyl)-N′-(3-methoxy-5-propoxybenzylidene)pyrazine-2-carbohydrazide]	93.3 nM	224 nM
CCOc1ccc(-c2cncc(C(=O)N/N=C/c3cc(OC)c(F)c(OC)c3)n2)cc1 [Compound 17, (E)-6-(4-ethoxyphenyl)-N′-(4-fluoro-3,5-dimethoxybenzylidene)pyrazine-2-carbohydrazide]	232 nM	7860 nM
CCOc1ccc(-c2cncc(C(=O)N/N=C/c3cc(OC)ccc3Cl)n2)cc1 [Compound 18, (E)-N′-(2-chloro-5-methoxybenzylidene)-6-(4-ethoxyphenyl)pyrazine-2-carbohydrazide]	62.6 nM	237 nM
CCOc1ccc(-c2cncc(C(=O)N/N=C/c3cccc(OC)c3Cl)n2)cc1 [Compound 19, (E)-N′-(2-chloro-3-methoxybenzylidene)-6-(4-ethoxyphenyl)pyrazine-2-carbohydrazide]	93.5 nM	575 nM
CCOc1ccc(-c2cncc(C(=O)N/N=C/c3cc(OC)ccc3F)n2)cc1 [Compound 20, (E)-6-(4-ethoxyphenyl)-N′-(2-fluoro-5-methoxybenzylidene)pyrazine-2-carbohydrazide]	13.3 nM	228 nM
CCOc1ccc(-c2cncc(C(=O)N/N=C/c3cccc(OC)c3F)n2)cc1 [Compound 21, (E)-6-(4-ethoxyphenyl)-N′-(2-fluoro-3-methoxybenzylidene)pyrazine-2-carbohydrazide]	74.5 nM	268 nM
CCOc1ccc(-c2cncc(C(=O)N/N=C/c3cccc(OC)c3)n2)cc1 [Compound 22, (E)-6-(4-ethoxyphenyl)-N′-(3-methoxybenzylidene)pyrazine-2-carbohydrazide]	27.2 nM	228 nM
CCOc1ccc(-c2cncc(C(=O)N/N=C/c3ccccc3OC)n2)cc1 [Compound 26, (E)-6-(4-ethoxyphenyl)-N′-(2-methoxybenzylidene)pyrazine-2-carbohydrazide]	24.9 nM	322 nM
CCOc1ccc(-c2cncc(C(=O)N/N=C/c3cccc(OC)c3OC)n2)cc1 [Compound 27, (E)-N′-(2,3-dimethoxybenzylidene)-6-(4-ethoxyphenyl)pyrazine-2-carbohydrazide]	221 nM	233 nM
COc1cc(/C=N/NC(=O)c2cncc(-c3ccc(OC(C)C)cc3)n2)cc(OC)c1 [Compound 29, (E)-N′-(3,5-dimethoxybenzylidene)-6-(4-isopropoxyphenyl)pyrazine-2-carbohydrazide]	51.3 nM	63.1 nM
COc1cc(/C=N/NC(=O)c2cncc(-c3ccc(OC4CCCC4)cc3)n2)cc(OC)c1 [Compound 30, 6-[4-(cyclopentyloxy)phenyl]-N′-[(E)-(3,5-dimethoxyphenyl)methylidene]pyrazine-2-carbohydrazide]	102 nM	55.6 nM
COc1cc(/C=N/NC(=O)c2cncc(-c3ccc(OC(F)(F)F)cc3)n2)cc(OC)c1 [Compound 31, N′-[(E)-(3,5-dimethoxyphenyl)methylidene]-6-[4-(trifluoromethoxy)phenyl]pyrazine-2-carbohydrazide]	132 nM	> 10000 nM
CCCOc1ccc(-c2cncc(C(=O)N/N=C/c3cc(OC)cc(OC)c3)n2)cc1 [Compound 32, N′-[(E)-(3,5-dimethoxyphenyl)methylidene]-6-(4-propoxyphenyl)pyrazine-2-carbohydrazide]	73.9 nM	210 nM
COc1ccc(-c2cncc(C(=O)N/N=C/c3cc[nH]c(=O)c3)n2)cc1 [Compound 34, (E)-6-(4-methoxyphenyl)-N′-((2-oxo-1,2-dihydropyridin-4-yl)methylene)pyrazine-2-carbohydrazide]	> 1000 nM	> 10000 nM
COc1ccc(-c2cncc(C(=O)N/N=C/c3ccc(F)c(C(N)=O)c3)n2)cc1 [Compound 35, (E)-2-fluoro-5-((2-(6-(4-methoxyphenyl)pyrazine-2-carbonyl)hydrazono)methyl)benzamide]	> 1000 nM	> 10000 nM
COc1ccc(-c2cncc(C(=O)N/N=C/c3ccnc(C(N)=O)c3)n2)cc1 [Compound 36, (E)-4-((2-(6-(4-methoxyphenyl)pyrazine-2-carobnyl)hydrazono)methyl)picolinamide]	> 1000 nM	> 10000 nM
COc1ccc(-c2cncc(C(=O)N/N=C/c3cccc(OC)c3)n2)cc1 [Compound 37, (E)-N′-(3-methoxybenzylidene)-6-(4-methoxyphenyl)pyrazine-2-carbohydrazide]	115 nM	1570 nM
COc1ccc(-c2cncc(C(=O)N/N=C/c3cccc(CN(C)C)c3)n2)cc1 [Compound 38, (E)-N′-(3-((dimethylamino)methyl)benzylidene)-6-(4-methoxyphenyl)pyrazine-2-carbohydrazide]	> 1000 nM	> 10000 nM
CCCOc1cccc(/C=N/NC(=O)c2cncc(-c3ccc(OC)cc3)n2)c1 [Compound 40, (E)-6-(4-methoxyphenyl)-N′-(3-propoxybenzylidene)pyrazine-2-carbohydrazide]	277 nM	3360 nM
